Experimental findings from patent US20240025903A1, “Bicyclic Compounds and Uses Thereof for the Treatment of Diseases” (Athira Pharma, Inc., priority 2020, published 2024) are described below.

Each structure is given as a SMILES string.

The term Papp denotes the rate of passage across a membrane or cell layer, normalised by area and donor concentration. As usually defined, the solubility is the dissolved amount per volume that the medium holds.

Data set [1] is described as follows: Parallel artificial membrane permeability assay (PAMPA). The class given is in vitro ADME. The conditions noted are these: PBS, room temperature. The protocol: Bioavailable drugs must permeate the cellular membranes of the lining of the digestive tract. To estimate the penetrability of exemplary compounds, the in vitro parallel artificial membrane permeability assay (PAMPA) was utilized.
Test compounds must have a standard curve in the final read plate to determine partitioned concentration of each drug. A 6-point standard curve was prepared for each compound from 0 to 200 μM in phosphate-buffered saline (PBS).
Test compound solution (300 μL in PBS) was added to the donor (bottom) well of the PAMPA plate in 5 replicates and PBS vehicle (200 μL) was added to the acceptor (top) wells of appropriate wells to match the loading of the donor plate. The bottom and top of the PAMPA plates were then sandwiched together. The PAMPA plates were then incubated at room temperature for 5 hours. After incubation, 150 μL of donor solution was added to a UV compatible plate containing the corresponding standard curve. 150 μL of acceptor well solution was added adjacent to the corresponding standard curve and donor well samples for that compound. The plate was then read using a UV plate reader.
Permeability and membrane retention were then calculated based on the following formulas:
Permeability (cm/s): (Pe)(cm/s)={−ln [1−CA(t)/Ceq]}/[A*(1/VD+1/VA)*t] (equation 1) • where: • A=filter area (0.3 cm^2); • VD=donor well volume (0.3 mL); • VA=acceptor well volume (0.2 mL); • t=incubation time (seconds); • CA(t)=compound concentration in acceptor well at time t; • CD(t)=compound concentration in donor well at time t; and • Ceq=[CD(t)*VD+CA(t)*VA]/(VD+VA).
Membrane Retention (R)=1−[CD(t)*VD+CA(t)*VA]/(C0*VD) (equation 2) • where: • CD(t), VD, CA(t), and VA are as defined for equation 1, and • C0=initial concentration in donor well (200 uM).
For orientation: In PAMPA a lipid-coated filter parts donor from acceptor wells.

Data set [2] can be described thus: Turbidimetric solubility assay. Format: physicochemical. The conditions noted are these: aqueous buffer, kinetic from dmso stock, PBS, 37° C., absorbance 620 nm. The protocol:
Aqueous solubility is a critical drug property that helps to predict bioavailability. Generally, compounds with aqueous solubility <100 μg/ml are poor drugs.
To assess a compound's solubility by turbidity, test compounds were first dissolved in organic solvent (DMSO) at a concentration of 10 mM. This compound solution was then diluted in aqueous solvent (PBS) in a dilution series from […] in a 96-well assay plate. Solutions were incubated at 37° C. for 2 hours.
In wells with test compounds over their solubility limit, the compound will precipitate, effectively blocking the passage of light and thus increasing the absorbance signal of UV light at a wavelength of 620 nm. Compounds were considered insoluble at a tested concentration if turbidity raises the absorbance more than 10% above control reads.

The target of another data set is T1, HGF/MET system (Homo sapiens, UniProt P08581+P14210).
T1 construct: HEK293 cells were prepared by passage into 6-well multi-plates; endogenous in cells; host or cells: HEK293
T1 sequence (P08581 308-1390 limits assumed): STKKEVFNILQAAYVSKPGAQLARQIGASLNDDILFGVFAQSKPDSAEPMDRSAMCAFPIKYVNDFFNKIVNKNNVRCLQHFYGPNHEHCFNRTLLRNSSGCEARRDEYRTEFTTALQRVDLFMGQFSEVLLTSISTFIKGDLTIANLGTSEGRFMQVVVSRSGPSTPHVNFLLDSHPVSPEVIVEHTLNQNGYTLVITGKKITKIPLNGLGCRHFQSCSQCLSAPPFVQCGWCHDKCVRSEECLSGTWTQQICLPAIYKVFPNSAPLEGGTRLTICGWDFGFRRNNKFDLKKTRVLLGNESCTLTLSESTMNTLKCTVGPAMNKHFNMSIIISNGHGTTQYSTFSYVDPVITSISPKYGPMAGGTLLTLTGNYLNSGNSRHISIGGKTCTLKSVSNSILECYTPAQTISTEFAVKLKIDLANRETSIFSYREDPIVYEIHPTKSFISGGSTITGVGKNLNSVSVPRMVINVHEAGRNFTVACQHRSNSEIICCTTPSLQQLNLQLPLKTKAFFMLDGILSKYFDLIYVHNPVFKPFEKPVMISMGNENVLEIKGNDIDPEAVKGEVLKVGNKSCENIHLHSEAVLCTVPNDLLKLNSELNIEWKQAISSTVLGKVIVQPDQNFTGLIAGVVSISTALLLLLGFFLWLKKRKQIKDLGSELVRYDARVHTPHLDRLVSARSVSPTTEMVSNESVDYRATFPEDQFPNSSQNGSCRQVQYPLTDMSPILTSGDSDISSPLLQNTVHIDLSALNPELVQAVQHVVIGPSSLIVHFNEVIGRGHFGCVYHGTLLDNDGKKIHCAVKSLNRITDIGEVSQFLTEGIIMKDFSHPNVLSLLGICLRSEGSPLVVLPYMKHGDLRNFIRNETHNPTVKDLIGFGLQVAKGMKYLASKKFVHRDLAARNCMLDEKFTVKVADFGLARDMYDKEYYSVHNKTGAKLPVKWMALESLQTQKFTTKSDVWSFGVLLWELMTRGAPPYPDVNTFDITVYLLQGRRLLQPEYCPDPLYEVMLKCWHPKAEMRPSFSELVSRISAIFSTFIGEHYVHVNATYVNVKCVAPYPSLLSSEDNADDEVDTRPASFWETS
T1 sequence (P14210 32-494 limits assumed): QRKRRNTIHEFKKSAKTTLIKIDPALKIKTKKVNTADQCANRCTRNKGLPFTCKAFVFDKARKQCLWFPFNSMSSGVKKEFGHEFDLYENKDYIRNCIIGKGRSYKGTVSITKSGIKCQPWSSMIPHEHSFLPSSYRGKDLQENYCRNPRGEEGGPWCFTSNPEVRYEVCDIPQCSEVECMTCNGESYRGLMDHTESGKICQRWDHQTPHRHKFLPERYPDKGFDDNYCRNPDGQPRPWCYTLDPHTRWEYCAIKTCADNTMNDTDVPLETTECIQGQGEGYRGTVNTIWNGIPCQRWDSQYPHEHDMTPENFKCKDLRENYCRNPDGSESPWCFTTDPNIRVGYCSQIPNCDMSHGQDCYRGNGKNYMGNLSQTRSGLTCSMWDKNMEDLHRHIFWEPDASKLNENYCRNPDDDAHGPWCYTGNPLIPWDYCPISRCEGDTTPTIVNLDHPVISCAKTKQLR
Nature of the data set: Phospho-MET ELISA. Details: key: − indicates that the compound failed to significantly augment MET phosphorylation; + indicates maximum potency at or above 100 nM; ++ indicates maximum potency at or above 10 nM; +++ indicates maximum potency at or above 1 nM; ++++ indicates maximum potency at or above 0.1 nM. The conditions noted are these: HEK293 cells, 1 ng/mL recombinant HGF, 15 minutes, pMET ELISA. Format: cell-based. The procedure:
Compounds were screened for potency towards the HGF/MET system using phospho-MET (pMET) ELISA kits (Cell Signaling). pMET levels were detected in samples having low (1 ng/mL) and high (10 ng/mL) concentrations of HGF.
HEK293 cells were prepared by passage into 6-well multi-plates and grown at 37° C. at 5% CO2 in DMEM+10% FBS until approximately 90% confluent. Cells were then starved for at least 8 hours in serum-free growth media.
Exemplary compounds were prepared in DMEM+0.1% FBS, diluted and added to treatment media with 1 ng/mL recombinant HGF protein (R&D Systems). Cells were incubated in triplicate at 37° C. and 5% CO2 for 15 minutes. Samples were then treated with 180 μL ice-cold RIPA (radioimmunoprecipitation assay) buffer and cells were lysed on ice for 15 minutes. Lysates were cleared by centrifugation at 16,000-g for 15 minutes and the supernatant was retained. Samples were normalized using a BCA assay of lysates to determine protein concentrations across the samples.
Between 50 and 100 μg total protein lysate was loaded into ELISA wells in pMET Sandwich ELISA kit (Cell Signaling Catalog #7227C), ensuring equal protein load in each well. The ELISA was processed according to manufacturer's instructions. After color developed, absorbance was read on an optical plate reader at 450 nm.
Potency measurements were determined using peak efficacy by scaling test compound dose treatments along a scale of 1-10 between 1 ng/mL and 10 ng/mL HGF doses according to the following formula: […]
where y is the normalized data-point, x is the raw data point, A is the mean HGF at 1 ng/mL, and B is the mean HGF at 10 ng/mL.
Background: ELISA stands for enzyme-linked immunosorbent assay.

The subject of another data set is HepG2 cells. As to the kind of experiment: Cytotoxicity assay (LDH release). Format: cell-based. The conditions noted are these: 48 hours, 0.1 to 100 μM. The protocol:
This experiment was designed to obtain a preliminary assessment of cytotoxicity.
HepG2 cells were plated in 96-well cell culture plates and allowed to attach overnight at 37° C., 5% CO2 in EMEM+10% FBS. Treatments were made in complete media (EMEM+10% FBS) and included a dilution series of test compounds from 0.1 to 100 μM. Known cytotoxin cerivastatin was used as a positive assay control and prepared at a final concentration of 0.5 μM.
Growth media was replaced with treatment media (EMEM+10% FBS containing test compound dissolved in DMSO) and cells were incubated with test compounds for 48 hours. At the end of the incubation period, supernatant media from each well was transferred to a new plate and LDH assay working solution was added. LDH assay solution undergoes a colorimetric reaction in proportion to the amount of lactate dehydrogenase (an intracellular protein that was only found in the media in the presence of lysed cells) in the media. Color reaction was quantified by measurement of absorbance at a wavelength of 490 nm.
The signal range of the assay was determined by no manipulation in a negative control treatment and full lysis of all cells in a lysis control sample. Compounds that increase the level of cytotoxicity more than 20% above negative control samples were considered cytotoxic in this assay.
Background: Release of lactate dehydrogenase indicates damage to the cell membrane.

The subject of a further data set is MDCK cells. Nature of the data set: Cell scattering behavior assay. The class given is cell-based. Details: key: − indicates that the compound failed to significantly promote cell scattering behavior; + indicates maximum potency at or above 100 nM; ++ indicates maximum potency at or above 10 nM; +++ indicates maximum potency at or above 1 nM; ++++ indicates maximum potency at or above 0.1 nM. The conditions noted are these: 5 ng/mL HGF, 24 hours, normalized particle count vs HGF alone. The protocol:
MDCK cells were grown under normal conditions and observed to spontaneously form tight colonies as they proliferate. MDCK cells respond to HGF treatment by moving away from each other (scattering), which is quantified to assess the amount of HGF/MET activation in the cell population. In this experiment, MDCK cells were plated in a 96-well format, treated with HGF and exemplary compounds, fluorescently stained, imaged in large fields, and scattering behavior was quantified. Quantification was determined by analyzing the number of continuous groups of cells compared to the total stained area imaged (normalized particle counts).
MDCK cells were plated at low density in black-walled imaging plates and allowed to attach overnight at 37° C. and 5% CO2 in DMEM+10% FBS. Cells were then starved to 2 hours in DMEM without FBS (“starve media”). Samples containing exemplary compounds were prepared in DMEM without FBS and included 5 ng/mL HGF protein (“treatment media”). A control curve was also prepared for each plate using HGF concentrations of 0, 5, 10, and 20 ng/mL. Starve media was replaced with treatment media and cells were incubated for 24 hours at 37° C. and 5% CO2.
After incubation, cells were fixed by replacing treatment media with cold ethanol and incubating for 20 minutes at 4° C. Cells were then rehydrated by washing with PBS and then with stain solution (fluorescent wheat germ agglutinin; WGA488 at 20 μg/mL in PBS). Cells were incubated with stain solution 30 minutes at room temperature after which stain solution was replaced with fresh PBS.
Fields of cells were imaged using an iCyte high content imager in the green wavelength. Images were converted to binary and analyzed for particle size and particle count. For the purpose of analysis, an individual cell touching no other cells or separated colonies of cells were identified as particles, and particle counts were normalized by the total signal area to account for differences in cell number. […] Compound potency was assessed by statistical increase in normalized particle count compared to HGF treatment alone.

`CCC(C)CN1CC2N(Cc3ccc(OC(F)F)cc3)CCC(=O)N2C(CC(C)C)C1=O` (stereo not shown) [Compound 53, 1-(4-(difluoromethoxy)benzyl)-6-isobutyl-8-(2-methylbutyl)hexahydro-4H-pyrazino[1,2-a]pyrimidine-4,7(6H)-dione] returned a Papp at 5 h, 200 µM in data set [1] of less than 2 ×10⁻⁶ cm/s. In data set [2], this molecule came in with a solubility at 2 h of more than 100 µM. In addition, the “Potency (augmentation of MET phosphorylation)” value on HGF/MET system was “++ (++ indicates maximum potency at or above 10 nM)”. For the same molecule, the Cytotoxicity result in the data set with HepG2 cells is listed as “+++ (+++ indicates non-toxic at 10 μM)”. In addition, the “Potency (cell scattering)” value in the data set with MDCK cells was “+++ (+++ indicates maximum potency at or above 1 nM)”.
The matching figures for `CC1C(=O)N(CCC2CCCC2)CC2N(Cc3ccc(C(F)(F)F)c(Cl)c3)CCC(=O)N12` (stereo not shown) [Compound 54]: less than 2 ×10⁻⁶ cm/s, more than 30 µM, “−”, “+++ (+++ indicates non-toxic at 10 μM)” and “−”.
